Measurements: patent US11609238B2, “Method for detecting a radical compound derived from a lipid and a compound derived from the radical compound” (FUSO PHARMACEUTICAL INDUSTRIES, LTD., priority 2017, dated 2023)

Assays:
[1] = Scavenging of lipid radicals in hepatocellular carcinoma model mouse, LC/FL/MS of liver lipid extract; type: in vivo, mice (C57BL/6J)
Method: It is appropriately selected according to the present invention, but not limited to, HPLC analysis is performed in this Example by injecting 10 μL of a sample solution into an InertSusteain® C18 analytical column (filled with ES silica having a particle size of 3 μm, 2.0×150 mm) manufactured by Mitsubishi Chemical Corporation, which is eluted with a mobile phase (A: 5.0 mM ammonium acetate in H2O, B:ACN:H2O (95:5)) at 40° C. at a rate of 0.4 ml/min. The time program of mobile phase elution was set to B %: 0 to 22 min; 60%, 22 to 60 min; 80%, 60 to 70 min; 100%.
For each fraction eluted, fluorescence observation from NBD-Pen was performed at excitation wavelength (470 nm) and emission wavelength (530 nm) with a fluorescence detector (RF-20A xs manufactured by Shimadzu Corporation).
Next, each fraction thus obtained was introduced into an ion detector (Q Exactive™ Hibrid Quadrupole-Orbitrap™ MS manufactured by Thermo Fisher Scientific Co., Ltd.) by electrospray ionization (ESI) and subjected to mass spectrometry.
Male mice (C57BL/6J) at 8 weeks of age were divided into two groups. As a control, physiological saline (PBS) was administered to mice in Group 1 by intraperitoneal injection. DEN at 100 mg/kg was administered to mice in Group 2 by intraperitoneal injection.
Four hours after DEN administration, a 500 μM NBD-Pen solution was administered at 4 ml/kg to mice in Groups 1 and 2 by intraperitoneal injection.
Fifteen minutes after administration of NBD-Pen, livers were excised from the mice in the respective groups and lipid extraction was performed. LC/FL/MS analysis was performed on extracts under the same conditions as in Example 1. The structure of the radical adduct was analyzed by comparing the fluorescence peak observed at the LC/FL site with the precise mass analysis result at that column retention time. The results are described in Table 2 and FIG. 11.

[2] = Reactivity of NBD-nitroxide with lipid radicals by fluorometry; conditions: for fluorescence intensity on reaction with lipid radical: lipid radical produced using lipoxygenase (LOX) for LA, ALA or AA, FIG. 3
Method: (§1) In order to investigate reaction selectivities of the above three types of NBD-nitroxide (NBD-Me, NBD-Et and NBD-Pen), reactivities with various ROS and lipid radical were evaluated by fluorometry. […] In addition, in the reaction with these compounds, no significant difference in fluorescence intensity was observed between these nitroxides, and there was no difference between the 2nd and 6th position substituents.

[3] = Reactivity of NBD-nitroxide with reactive oxygen species by fluorometry; conditions: hydrogen peroxide, hypochlorous acid
Method: as §1

[4] = test system: human umbilical vein endothelial cell (HUVEC); experiment: Cytotoxicity of NBD-nitroxide, viable cell count; type: cell-based; conditions: viable cells after incubation for 24 hours
Method: Cytotoxicity of NBD-nitroxide was evaluated using human umbilical vein endothelial cell (HUVEC). When each concentration of the compound was added to HUVEC and the number of viable cells after incubation for 24 hours was counted, cytotoxicity was not observed up to 10 μM in any NBD-nitroxide.

[5] = test system: MDA, ALT (GPT), IL-6 in liver extracts of DEN-administered rats; experiment: Liver lipid peroxidation, hepatic injury and inflammatory markers after DEN administration; type: in vivo, rats (F344); conditions: rat liver extract 24 h after DEN 100 mg/kg i.p.; 500 μM solution at 4 ml/kg 1 h after DEN; vs DEN group; FIG. 5
Method: (§2) Six week-old male rats (F344) were divided into 4 groups, and as a control, rats in Group 1 were administered with saline (PBS) by intraperitoneal injection. Rats in Groups 2-4 were administered with DEN at 100 mg/kg by intraperitoneal injection.
(§3) One hour after DEN administration, physiological saline was administered to rats in Group 2 by intraperitoneal injection, rats in Group 3 were administered with a 500 μM OH-Pen solution at 4 ml/kg, and rats in Group 4 were administered with a 500 μM OH-Pen-NOMe solution at 4 ml/kg.
Twenty-four hours after DEN administration, livers were excised from rats in the respective groups and lipid extraction was carried out. For extracts, amounts of malondialdehyde; MDA as a peroxidized lipid marker, alanine transaminase (glutamate pyruvate transferase; ALT (GPT)) as a hepatic injury marker, and interleukin-6; IL-6 as an inflammatory marker were measured.

hepatocellular carcinoma = experiment: Hepatocellular carcinogenesis three months after DEN administration, number of tumor foci; type: in vivo, rats (F344); conditions: rats three months after DEN 100 mg/kg i.p.; 500 μM solution at 4 ml/kg 1 h after DEN; FIG. 6
Method: as §2, §3
Three months after DEN administration, rats in the respective groups were subjected to mixed anesthesia of 3 species, and they were sacrificed and livers were taken out promptly. Photographs of the livers taken from the rats of the respective groups are shown in FIG. 6, and the result of counting the number of tumor foci is shown in FIG. 6b.

[6] = Gr. 1, no DEN (PBS), mouse liver 15 min after 500 μM NBD-Pen 4 ml/kg i.p.
[7] = Gr. 2, DEN 100 mg/kg i.p., NBD-Pen 500 μM 4 ml/kg i.p. 4 h after DEN, liver 15 min later
[8] = superoxide anion radical, hydroxy radical or nitric oxide, FIG. 3

Row | Compound | fluorescence intensity on reaction with lipid radical [2] | fluorescence on reaction with reactive oxygen species [3, 8] | alanine transaminase ALT (GPT), hepatic injury marker [5] | interleukin-6 (IL-6), inflammatory marker [5] | malondialdehyde (MDA), peroxidized lipid marker [5] | hepatocellular carcinogenesis (number of tumor foci) (hepatocellular carcinoma) | other results
1 | 2,2,6-trimethyl-4-(4-nitrobenzo[1,2,5]oxadiazol-7-ylamino)-6-pentylpiperadine-1-oxyl [NBD-Pen] | significantly elevated | fluorescence did not increase much | – | – | – | – | Fluorescent intensity of NBD-Pen-R (a.u.) R [1, 6]: 29.72 a.u.; Fluorescent intensity of NBD-Pen-R (a.u.) R C2H5 [1, 6]: 72.95 a.u.; Fluorescent intensity of NBD-Pen-R (a.u.) R C3H7 [1, 6]: 143.69 a.u.; Fluorescent intensity of NBD-Pen-R (a.u.) R C5H11 [1, 6]: 393.38 a.u.; Fluorescent intensity of NBD-Pen-R (a.u.) R [1, 7]: 353.94 a.u.; Fluorescent intensity of NBD-Pen-R (a.u.) R C2H5 [1, 7]: 704.15 a.u.; Fluorescent intensity of NBD-Pen-R (a.u.) R C3H7 [1, 7]: 1604.07 a.u.; Fluorescent intensity of NBD-Pen-R (a.u.) R C5H11 [1, 7]: 3511.72 a.u.; reactivity with the lipid radicals and thermal stability of nitroxide-lipid complex, comparison among Compounds A to C [2]: predominant; fluorescence intensity on reaction with lipid radicals ([2]; LA, ALA, AA activated with LOX, AAPH or MeO-AMVN, FIG. 4): remarkably increased; fluorescence on reaction with reactive oxygen species ([3]; superoxide anion radical or hydroxy radical, FIG. 4): fluorescence did not increase much; concentration up to which cytotoxicity was not observed [4]: > 10 µM
2 | CCCCCC1(C)CC(O)CC(C)(C)N1[O] (centres unmarked) [OH-Pen, 4-hydroxy-2,2,6-trimethyl-6-pentylpiperidine-1-oxyl] | – | – | significantly decreased | significantly decreased | significantly decreased | suppressed hepatocellular carcinogenesis | –
3 | CC1(C)CC(Nc2ccc([N+](=O)[O-])c3nonc23)CC(C)(C)N1[O] [NBD-Me] | significantly elevated | fluorescence did not increase much | – | – | – | – | –
4 | CCC1(CC)CC(Nc2ccc([N+](=O)[O-])c3nonc23)CC(CC)(CC)N1[O] [NBD-Et] | significantly elevated | fluorescence did not increase much | – | – | – | – | –
5 | CCCCCC1(C)CC(O)CC(C)(C)N1OC (centres unmarked) [OH-Pen-NOMe, 4-hydroxy-1-methoxy-2,2,6-trimethyl-6-pentylpiperidine-1-oxyl] | – | – | almost no drop | almost no drop | almost no drop | not suppressed at all | –
